In series [1] the target is T1, RPE65 (Mus musculus, UniProt Q91ZQ5).
T1 construct: from tissue; host or cells: eyes of living BALB/cJ mice
T1 sequence (Q91ZQ5 1-533): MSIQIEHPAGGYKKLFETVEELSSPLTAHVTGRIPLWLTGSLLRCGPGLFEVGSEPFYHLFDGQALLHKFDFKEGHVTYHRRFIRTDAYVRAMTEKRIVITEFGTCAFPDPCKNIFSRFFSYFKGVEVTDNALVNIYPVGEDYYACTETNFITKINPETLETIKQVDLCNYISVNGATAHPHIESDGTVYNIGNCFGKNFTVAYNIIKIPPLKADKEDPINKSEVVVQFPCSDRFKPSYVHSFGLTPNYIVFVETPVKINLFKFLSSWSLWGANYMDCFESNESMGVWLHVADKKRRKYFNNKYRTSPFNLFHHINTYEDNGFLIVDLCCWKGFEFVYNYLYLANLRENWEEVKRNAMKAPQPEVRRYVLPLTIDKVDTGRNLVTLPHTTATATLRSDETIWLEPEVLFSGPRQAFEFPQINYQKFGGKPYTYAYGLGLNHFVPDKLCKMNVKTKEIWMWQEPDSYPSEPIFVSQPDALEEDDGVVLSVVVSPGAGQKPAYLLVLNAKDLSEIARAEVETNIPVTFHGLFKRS
Briefly: Chromophore regeneration after photobleach, HPLC retinoid profile. Format: in vivo, BALB/cJ mice. On the procedure:
FIG. 4. Systemic injection of inhibitor RPE65-61 delays chromophore regeneration in BALB/cJ mice. Dark-adapted mice were injected with varying amounts of RPE65-61, and subjected to light-adaptation under 5000 lx of fluorescent light for 30 min. The eyes were harvested for HPLC retinoid profiling after 30 min of dark-adaptation, to measure levels of (FIG. 4A) 11-cis-RAL, (FIG. 4B) all-trans-RAL, and (FIG. 4C) all-transretinyl ester. (FIG. 4D) schematic representation of experimental design for RPE65-61 in vivo. Student's t-test. *P<0.05, **<0.01 and ***<0.001. (Mean±SEM).
Dark-adapted or light-exposed mice were sacrificed, and their eyes enucleated under dim red light. The whole eyes were homogenized with a glass grinder in lysis buffer [10 mM NH2OH, 50% ethanol, […] 2-(N-morpholino) ethanesulfonic acid, pH 6.5], incubated for 1 hr, and retinoids were extracted with hexane.
The ability of RPE65-61 to inhibit RPE65 in vivo was also investigated by determining chromophore regeneration after bleaching with 5,000 lux fluorescent light for 30 min. (FIG. 4).

Series [2] deals with retina. As to the kind of experiment: Light-induced retinal damage (LIRD). It counts as in vivo, BALB/c mice. The conditions noted are these: 2 mg/kg, 10,000 lux 3 hr, 5 days post-LIRD. On the procedure:
FIG. 5. LIRD caused the degeneration in the retina and RPE, which was rescued by inhibitor at the dose of 2 mg/kg in BALB/c mice. (FIG. 5A) Representative histological analysis for the retinas of RPE65-61 injected mice 5 days post-LIRD. Retinal cross-sections of No LIRD Control, LIRD+Vehicle, and LIRD+inhibitor RPE65-61 from three groups were stained with H&E for morphological comparison, 40× magnification. (FIG. 5B) Representative OCT images of mice treated with RPE65-61. […] RPE: retinal pigment epithelium; IS: inner segment; OS: outer segment; ONL: outer nuclear layer; OPL: outer plexiform layer; INL: inner nuclear layer; IPL: inner plexiform layer; RNFL: retinal nerve fiber layer. Bars represent mean±SEM. with n=8 per group. Student's t-test. *P<0.05, **<0.01 and ***<0.001, ****<0.0001.
FIG. 6. […] (FIGS. 6A-B) Shown are representative images of the Western blot detection of rhodopsin protein expression and the correlating quantifications. (FIGS. 6C-D) Cone density was evaluated by immunofluorescence, representative confocal images of immunofluorescence labeling with Peanut Agglutinin Lectin (PNA) and the correlating quantifications, 40× magnification. […]
Mice were dark-adapted overnight with food and water ad libitum. […] The mice were returned to regular housing for 5 days and then the retinal damage was assessed. […]

Each structure is given as a SMILES string.

With `N=S(=O)(CCN)c1cccc(OCC2CCCCC2)c1` (racemic) [RPE65-61, (±)-(2-aminoethyl) (3-(cyclohexylmethoxy)phenyl) (imino)-λ^6-sulfanone], the “chromophore regeneration after photobleach” value in series [1] (0.5, 1 or 2 mg/kg injected, 5,000 lux 30 min) was “delayed chromophore regeneration after photobleach in a dose-dependent manner”. For the same molecule, in series [1] (mouse, in vivo), the “inhibition of 11-cis-retinal regeneration after photobleaching compared with CU-239” value was “higher potency” and the “retinyl ester levels in treated mice” value was “accumulate higher levels of retinyl esters”. In addition, the “effect against LIRD (histology, ERG)” value in series [2] is given as “protective effect”.

For the origin of these results see patent publication US20240245647A1, “ISOMEROHYDROLASE INHIBITOR FOR TREATMENT OF ATROPHIC FORM OF AGE-RELATED MACULAR DEGENERATION AND STARGARDT DISEASE” (The Trustees of Columbia University in the City of New York, priority 2021, published 2024).
